Experimental data reported in the supplement of paper PMC10307832.

How the values were obtained:
Assay in all cases: relative viability (nuclei count vs DMSO), 5 days (fraction); higher = more cells survive
Bortezomib + Luminespib = compound: CC(C)C[C@H](NC(=O)[C@H](Cc1ccccc1)NC(=O)c1cnccn1)B(O)O [Bortezomib] + CCNC(=O)c1noc(-c2cc(C(C)C)c(O)cc2O)c1-c1ccc(CN2CCOCC2)cc1 [Luminespib] (partner 0.01 µM)
Procedure, shortened: (§1)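 Five library-drug doses in √10 steps were combined with a fixed anchor-drug dose, or a single drug was given alone, by pin tool to lung cancer cell lines in 1536-well plates the day after seeding. Nuclei were stained and counted after 5 days. Relative viability is the nuclei count in treated wells over that in vehicle wells, taken as the median of duplicate plates.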

Bortezomib + Alpelisib = compound: CC(C)C[C@H](NC(=O)[C@H](Cc1ccccc1)NC(=O)c1cnccn1)B(O)O [Bortezomib] + Cc1nc(NC(=O)N2CCC[C@H]2C(N)=O)sc1-c1ccnc(C(C)(C)C(F)(F)F)c1 [Alpelisib] (partner 2 µM)
Procedure, shortened: as §1

[1] = compound: CC1=CC(=NN1)NC2=CC(=NC(=N2)/C=C/C3=CC=CC=C3)N4CCN(CC4)C + N=C(N)NC(=N)NCCc1ccccc1 [Phenformin] (partner 250 µM)
Procedure, shortened: as §1

Obatoclax + Crizotinib = compound: COC1=CC(c2cc3ccccc3[nH]2)=N/C1=C\c1[nH]c(C)cc1C [Obatoclax] + C[C@@H](Oc1cc(-c2cnn(C3CCNCC3)c2)cnc1N)c1c(Cl)ccc(F)c1Cl [Crizotinib] (partner 1 µM)
Procedure, shortened: as §1

## NCI-H650
Bortezomib + Luminespib; first compound 0.000632 µM
  relative viability: 0.731
Bortezomib + Luminespib; first compound 0.002 µM
  relative viability: 0.676
Bortezomib + Luminespib; first compound 0.006325 µM
  relative viability: 0.469
Bortezomib + Luminespib; first compound 0.02 µM
  relative viability: 0.155
Bortezomib + Alpelisib; first compound 0.000632 µM
  relative viability: 1.18
Bortezomib + Alpelisib; first compound 0.002 µM
  relative viability: 0.819
Bortezomib + Alpelisib; first compound 0.006325 µM
  relative viability: 0.355
Bortezomib + Alpelisib; first compound 0.02 µM
  relative viability: 0.182
[1]; first compound 0.253 µM
  relative viability: 0.521
[1]; first compound 0.8 µM
  relative viability: 0.483
[1]; first compound 2.53 µM
  relative viability: 0.371
[1]; first compound 8 µM
  relative viability: 0.181
Obatoclax + Crizotinib; first compound 0.01 µM
  relative viability: 0.717
Obatoclax + Crizotinib; first compound 0.03162 µM
  relative viability: 0.668
Obatoclax + Crizotinib; first compound 0.1 µM
  relative viability: 0.561
Obatoclax + Crizotinib; first compound 0.3162 µM
  relative viability: 0.498
Obatoclax + Crizotinib; first compound 1 µM
  relative viability: 0.323
